Like-named read-outs stand apart in the source and are kept apart here.
Tests used:
rgRSV224 virus = test: Antiviral activity: inhibition of rgRSV224 replication (GFP expression) in HeLa cells; assay type: cell-based, respiratory syncytial virus (RSV); conditions: read-out: WT activity EC50
Procedure: Black 96-well clear-bottom microtiter plates (Corning, Amsterdam, The Netherlands) were filled in duplicate using a customized robot system with serial 4-fold dilutions of compound in a final volume of 50 μl culture medium [RPMI medium without phenol red, 10% FBS, 0.04% gentamycin (50 mg/ml) and 0.5% DMSO]. Then, 100 μl of a HeLa cell suspension (5×10^4 cells/ml) in culture medium was added to each well followed by the addition of 50 μl rgRSV224 (MOI=0.02) virus in culture medium using a multidrop dispenser (Thermo Scientific, Erembodegem, Belgium). rgRSV224 virus is an engineered virus that includes an additional GFP gene (Hallak et al, 2000) and was in-licensed from the NIH (Bethesda, Md., USA). Medium, virus- and mock-infected controls were included in each test. Cells were incubated at 37° C. in a 5% CO2 atmosphere. Three days post-virus exposure, viral replication was quantified by measuring GFP expression in the cells by a MSM laser microscope (Tibotec, Beerse, Belgium).
(§1) The EC50 was defined as the 50% inhibitory concentration for GFP expression. In parallel, compounds were incubated for three days in a set of white 96-well microtitier plates (Corning) and the cytotoxicity of compounds in HeLa cells was determined by measuring the ATP content of the cells using the ATPlite kit (PerkinElmer, Zaventem, Belgium) according to the manufacturer's instructions. The CC50 was defined as the 50% concentration for cytotoxicity.
Compounds were tested for RSV inhibitory activity. The results are depicted in the Table below (n.d. means not determined): […]

[1] = Cytotoxicity in HeLa cells, ATP content (ATPlite kit); assay type: cell-based; conditions: human, three days incubation, read-out: Tox CC50
Procedure: as §1

HeLa cells = test: as above; assay type: cell-based; conditions: three days incubation, read-out: Tox CC50
Procedure: as §1

[2] = human respiratory syncytial virus, HeLa, 72 h

Question: With `CC(C)(C)OC(=O)N1CC(n2c(=O)n(Cc3nc4cc(Cl)ccc4n3CCCS(C)(=O)=O)c3ccccc32)C1` [Compound P1, tert-butyl-3-(3-((5-chloro-1-(3-(methyl-sulfonyl)propyl)-1H-bezon[d]imidazol-2-yl)methyl)-2-oxo-2,3-dihydro-1H-imidazo[d]imidazol-1-yl)azetidine-1-carboxylate] as the compound, how does the EC50 (rgRSV224 virus; [2]) read?
Answer: The EC50 was 0.68 nM.

Question: And the CC50 at 3 days [1]?
Answer: Its CC50 at 3 days is > 100000 nM.

Question: What does the source list for “3-((5-chloro-1-(4-fluorobutyl)-1H-benzo[d]imidazol-2-yl)methyl)-1-(tetrahydrofuran-3-yl)-1H-imidazo[4,5-c]pyridin-2(3H)-one [Compound P10]”?
Answer: EC50 (rgRSV224 virus; rgRSV224 (MOI=0.02) in HeLa cells, GFP expression three days post-virus exposure): 15 nM; CC50 (HeLa cells): > 100000 nM

Question: For `COc1ccc(-n2c(=O)n(Cc3nc4cc(Cl)ccc4n3CCCS(C)(=O)=O)c3cnccc32)cc1` [Compound P7, 3-((5-chloro-1-(3-(methylsulfonyl)propyl)-1H-benzo[d]imidazol-2-yl)-methyl)-1-(4-methoxyphenyl)-1H-imidazo[4,5-c]pyridin-2(3H)-one], which melting point is on record?
Answer: Its melting point is 250 °C.

Question: What about the EC50 (rgRSV224 virus; [2]) of the same compound?
Answer: The EC50 was 0.05 nM.

Question: And the CC50 at 3 days [1]?
Answer: The CC50 at 3 days was > 100000 nM.

Question: Which melting point does the source give for `O=c1n(Cc2nc3cc(Cl)ccc3n2CCCCF)c2cnccc2n1-c1ccc2ncccc2c1` [Compound P9, 3-((5-chloro-1-(4-fluororbutyl)-1H-benzo[d]imidazol-2-yl)methyl)-1-(quinolin-6-yl)-1H-imidazo[4,5-c]pyridin-2(3H)-one] here?
Answer: Its melting point is 231 °C.

Question: And the EC50 (rgRSV224 virus; [2])?
Answer: Its EC50 is 0.25 nM.

Question: What about the CC50 at 3 days [1] of the same compound?
Answer: The CC50 at 3 days was > 100000 nM.

Question: Which melting point does the source give for `O=c1n(Cc2nc3cc(Cl)ccc3n2CCCCF)c2cnccc2n1-c1nccs1` [Compound P8, 3-((5-chloro-1-(4-fluororbutyl)-1H-benzo[d]imidazol-2-yl)methyl)-1-(thiazol-2-yl)-1H-imidazo[4,5-c]pyridin-2(3H)-one] here?
Answer: The melting point was 206 °C.

Question: And the EC50 (rgRSV224 virus; [2])?
Answer: The EC50 was 0.19 nM.

Question: What about the CC50 at 3 days [1] of the same compound?
Answer: Its CC50 at 3 days is > 100000 nM.

Question: With `O=c1n(Cc2nc3cc(Cl)ccc3n2CCCCF)c2cnccc2n1-c1ccc(F)cc1` [Compound P4, 3-((5-chloro-1-(4-fluorobutyl)-1H-benzo[d]imidazol-2-yl)methyl)-1-(4-fluorophenyl)-1H-imidazo[4,5-c]pyridin-2(3H)-one] as the compound, how does the melting point read?
Answer: The melting point was 180 °C.

Question: What about the EC50 (rgRSV224 virus; [2]) of the same compound?
Answer: The EC50 was 0.3 nM.

Question: And the CC50 at 3 days [1]?
Answer: Its CC50 at 3 days is > 100000 nM.

Question: Which results are given for `CC1(n2c(=O)n(Cc3nc4cc(Cl)ccc4n3CCCS(C)(=O)=O)c3cnccc32)CC1` [Compound P3]?
Answer: EC50 (rgRSV224 virus; [2]): 0.25 nM; CC50 at 3 days [1]: > 100000 nM

Question: For `CC(C)(C)n1c(=O)n(Cc2nc3cc(Cl)ccc3n2CCCS(C)(=O)=O)c2cnccc21` [Compound P2, 1-tert-butyl-3-((5-chloro-1-(3-(methyl-sulfonyl)propyl)-1H-benzo[d]imidazol-2-yl)methyl)-1H-imidazo[4,5-c]pyridin-2(3H)-one], which melting point is on record?
Answer: Its melting point is 197 °C.

Question: And the EC50 (rgRSV224 virus; [2])?
Answer: The EC50 was 0.39 nM.

Question: And the CC50 at 3 days [1]?
Answer: The CC50 at 3 days was > 100000 nM.

Question: With `COc1ccc(-n2c(=O)n(Cc3nc4cc(Cl)ccc4n3CCCCF)c3cnccc32)cc1` [Compound P5, 3-((5-chloro-1-(4-fluorobutyl)-1H-benzo[d]imidazol-2-yl)methyl)-1-(4-methoxyphenyl)-1H-imidazo[4,5-c]pyridin-2(3H)-one] as the compound, how does the melting point read?
Answer: Its melting point is 167 °C.

Question: What about the EC50 (rgRSV224 virus; [2]) of the same compound?
Answer: The EC50 was < 0.1 nM.

Question: What about the CC50 at 3 days [1] of the same compound?
Answer: Its CC50 at 3 days is > 100000 nM.

Question: Which melting point does the source give for `O=c1n(Cc2nc3cc(Cl)ccc3n2CCCCF)c2cnccc2n1-c1ccc(F)nc1` [Compound P6, 3-((5-chloro-1-(4-fluorobutyl)-1H-benzo[d]imidazol-2-yl)methyl)-1-(6-fluoropyridin-3-yl)-1H-imidazo[4,5-c]pyridin-2(3H)-one] here?
Answer: The melting point was 208 °C.

Question: And the EC50 (rgRSV224 virus; [2])?
Answer: Its EC50 is 0.79 nM.

Question: What about the CC50 at 3 days [1] of the same compound?
Answer: Its CC50 at 3 days is > 100000 nM.
